Consider 21 compounds from patent US20190307783A1, “USE OF ANTIVIRALS TO INHIBIT PROTOZOAN VIRUSES” (priority 2016, published 2019).

Like-named read-outs stand apart in the source and are kept apart here.

For series [1], the system named is LRV1 (LgyLRV1 capsid levels). The series is described as follows: organism not typed. To be noted: for Effect on LRV1 (capsid) levels, in words: screen at 100 μM or maximum concentration permitted by solubility. From the text: Because LRV1 (like most Totiviridae) is not shed from the cell (33, 34), we developed a flow cytometric assay to measure intracellular LRV1 capsid levels on a per cell basis. To detect LRV1 we used binding to a rabbit anti-LgyLRV1 capsid antiserum (35) followed by detection with Alexa Fluor488-conjugated goat anti-rabbit IgG.
(§1) Parasites were inoculated at 2×10^5 cells/mL into Schneider's media lacking supplemental adenine.
For capsid flow cytometry, 10^7 cells were fixed at room temperature using 2% (wt/vol) paraformaldehyde (Thermo Fisher Scientific) in PBS for 2 minutes. They were then incubated in blocking buffer [10% (vol/vol) normal goat serum (Vector Laboratories, Burlingame, Calif., USA) and 0.2% TRITON X-100 in PBS] for 30 minutes at room temperature. Anti-LgyLRV1 capsid antibody (35) was added (1:20,000 dilution) and incubated at room temperature for 1 hour. After two washes with PBS, cells were resuspended in 200 μL PBS with Alexa Fluor488-labeled goat anti-rabbit IgG (Alexafluor, Invitrogen; 1:1,000; or Thermo Fisher Scientific; 1:2,000 dilution), and incubated 1 hour at room temperature. After two additional washes with PBS, cells were subjected to flow cytometry, gating for single cells using forward and side scatter and the data analyzed using […] software (BD Bioscience, San Jose, Calif., USA).

Series [2] concerns L. guyanensis (LgyLRV1+). Kind of series: Drug-inhibition test: growth of LgyLRV1+ parasites. The class given is cell-based, Leishmania guyanensis. The protocol: These compounds were examined for their ability to inhibit the growth of LgyLRV1^+ and virus levels by LRV1 capsid flow cytometry.
Most studies were performed using luciferase-expressing transfectants of L. guyanensis (MHOM/BR/78/M4147) described previously [LRV1^+ LgyM4147/SSU:IR2SAT-LUC(b)c3 and LRV^−LgyM4147/pX63HYG/SSU:IR2SAT-LUC(b)c4] (54); these lines are termed LgyLRV1^+ and LgyLRV1^−, respectively. Two strains of LRV1^+L. braziliensis were examined: LEM2780 (MHOM/BO/90/CS) and LEM3874 (MHOM/BO/99/IMT252 no. 3) (12). Parasites were grown in Schneider's media (Sigma Aldrich, St. Louis, Mo., USA) prepared according to the supplier's instructions with pH adjusted to 6.5 and supplemented with 0.76 mM hemin, 2 μg/mL biopterin, 50 U/mL penicillin, 50 μg/mL streptomycin, and 10% (vol/vol) heat-inactivated FBS. Cell concentrations were determined using a Coulter Counter ([…], Indianapolis, Ind., USA).
as §1

Where [3] appears, read: 48 h, read-out: Percent control (LRV1 capsid).
Setting [4] is: Leishmania guyanensis, 48 h, LgyLRV1+, tested at 100 μM, growth after 2 days, read-out: Percent control (density).
Setting [5] is: LgyLRV1+, tested at 100 μM, growth after 2 days.
Where [6] appears, read: LgyLRV1+, tested at 40 μM, 2 days.
Setting [7] is: Leishmania guyanensis, 48 h, LgyLRV1+, tested at 40 μM, growth after 2 days, read-out: Percent control (density).
Setting [8] is: LgyLRV1+, tested at 40 μM, growth after 2 days.
Where [9] appears, read: Leishmania guyanensis, 48 h, read-out: Percent control (density).
Setting [10] is: LgyLRV1+, tested at 100 μM, 2 days.
Setting [11] is: LgyLRV1+, tested at 1 μM, 2 days.
Where [12] appears, read: Leishmania guyanensis, 48 h, LgyLRV1+, tested at 1 μM, growth after 2 days, read-out: Percent control (density).
Setting [13] is: LgyLRV1+, tested at 1 μM, growth after 2 days.
The mark [14] stands for this setting: LgyLRV1+, tested at 50 μM, growth after 2 days.

`CN(C)c1ncnc2c1ncn2[C@@H]1O[C@H](CO)[C@@H](O)[C@H]1O` [Chembridge 5790592, N,N-dimethyl adenosine]: the “LRV1 capsid (geometric mean FU)” value in series [1] came out at 287 FU. The activity at 100 µM in series [1] (setting [3]) was found to be 108%; in series [2] (setting [4]), 1%. Moreover, the “Density (cells/mL)” value in series [2] (setting [5]) was determined as 1.00E+5 cells/mL.
Consider `Nc1ccn(C[C@@H](CO)OCP(=O)(O)O)c(=O)n1` [Cidofovir], for which the activity at 40 µM in series [1] (setting [3]) is 240%; in series [2] (setting [7]), 59%. For the same compound, the “LRV1 capsid (geometric mean FU)” value in series [1] (setting [6]) is 637 FU. Also, the “Density (cells/mL)” value in series [2] (setting [8]) came out at 9.99E+6 cells/mL.
Turning to `O=c1nc[nH]c(=O)[nH]1` [Compound 5-Azauracil, 5-Azauracil], in series [1], the “LRV1 capsid (geometric mean FU)” value is listed as 252 FU. Further, the activity at 100 µM turned out to be 95% in series [1] (setting [3]) and 67% in series [2] (setting [9]). For the same compound, in series [2], the “Density (cells/mL)” value is 1.13E+7 cells/mL.
Turning to `O=c1cn[nH]c(=O)[nH]1` [Compound 6-Azauracil, 6-Azauracil], the “LRV1 capsid (geometric mean FU)” value in series [1] is recorded as 271 FU. In addition, the figures for the activity at 100 µM in series [1] (setting [3]) and in series [2] (setting [4]) were 102% and 71%, respectively. Further, the “Density (cells/mL)” value in series [2] (setting [5]) is reported as 1.20E+7 cells/mL.
For `Nc1nc2nn[nH]c2c(=O)[nH]1` [Compound 8-Azaguanine, 8-Azaguanine] the same measures were 264 FU, 100%, 34% and 5.68E+6 cells/mL.
In the case of `[N-]=[N+]=N[C@]1(CO)O[C@@H](n2ccc(N)nc2=O)[C@H](O)[C@@H]1O` [Compound R-1479, 4′-Azido cytidine], the values for the activity at 100 µM in series [1] (setting [3]) and in series [2] (setting [4]) were 43% and 73%, respectively. Moreover, the “LRV1 capsid (geometric mean FU)” value in series [1] (setting [10]) worked out at 114 FU. Besides, the “Density (cells/mL)” value in series [2] (setting [5]) turned out to be 1.23E+7 cells/mL.
For `NC(=O)c1nc(F)c[nH]c1=O` [Compound T-705, Favipiravir] the same measures were 60%, 67%, 161 FU and 1.13E+7 cells/mL.
`O=c1[nH]cnc2c1ncn2[C@H]1CC[C@@H](CO)O1` [Didanosine]: the activity at 100 µM was found to be 68% in series [1] (setting [3]) and 107% in series [2] (setting [9]). For the same compound, the “LRV1 capsid (geometric mean FU)” value in series [1] (setting [10]) is reported as 182 FU. The “Density (cells/mL)” value in series [2] (setting [5]) is recorded as 1.80E+7 cells/mL.
`C=C1[C@H](CO)[C@@H](O)C[C@@H]1n1cnc2c(=O)[nH]c(N)nc21` [Entecavir]: the activity at 100 µM in series [1] (setting [3]) was determined as 45%; in series [2] (setting [4]), 105%. Also, the “LRV1 capsid (geometric mean FU)” value in series [1] (setting [10]) was determined as 119 FU. The “Density (cells/mL)” value in series [2] (setting [5]) turned out to be 1.77E+7 cells/mL.
Take `O=C(O)P(=O)(O)O` [Foscarnet, Phosphonoformic acid]: the activity at 100 µM in series [1] (setting [3]) came to 61%; in series [2] (setting [4]), 56%. The “LRV1 capsid (geometric mean FU)” value in series [1] (setting [10]) was 162 FU. Also, the “Effect on LRV1 (capsid) levels, in words” value in series [1] (2 days) is “not significantly affected”. In addition, the “Density (cells/mL)” value in series [2] (setting [5]) was found to be 9.50E+6 cells/mL.
In the case of `Nc1nc(O)c2ncn(COC(CO)CO)c2n1` [Ganciclovir], the activity at 40 µM turned out to be 75% in series [1] (setting [3]) and 58% in series [2] (setting [7]). Also, the “LRV1 capsid (geometric mean FU)” value in series [1] (setting [6]) is 198 FU. Moreover, in series [2] (setting [8]), the “Density (cells/mL)” value is 9.78E+6 cells/mL.
With `COc1c(C)c2c(c(O)c1C/C=C(\C)CCC(=O)O)C(=O)OC2` [Mycophenolic acid], the activity at 1 µM in series [1] (setting [3]) is 90%; in series [2] (setting [12]) it was 3%. In addition, the “LRV1 capsid (geometric mean FU)” value in series [1] (setting [11]) turned out to be 238 FU. Further, the “Density (cells/mL)” value in series [2] (setting [13]) stood at 4.55E+5 cells/mL.
In the case of `C#C[C@@]1(O)[C@H](O)[C@@H](CO)O[C@H]1n1ccc2c(N)ncnc21` [NITD008, 7-(2-Ethynyl-β-D-ribofuranosyl)-7H-pyrrolo[2,3-d]pyrimidine-4-amine], the values for the activity at 1 µM in series [1] (setting [3]) and in series [2] (setting [12]) were 37% and 61%, respectively. The “LRV1 capsid (geometric mean FU)” value in series [1] (setting [11]) was determined as 98 FU. Besides, the “Effect on LRV1 (capsid) levels, in words” value in series [1] (2 days) is on record as “little effect on LRV1”. For the same compound, the “Density (cells/mL)” value in series [2] (setting [13]) came to 1.02E+7 cells/mL.
In the case of `CC(C)OC(=O)[C@H](C)N[P@](=O)(OC[C@H]1O[C@@H](n2ccc(=O)[nH]c2=O)[C@](C)(F)[C@@H]1O)Oc1ccccc1` [PSI-7977, 2-((5-(2,4-dioxo-3,4-dihydro-2H-pyrimidin-1-yl)-4-fluoro-3-hydroxy-4-methyltetrahydrofuranyl-2-methoxy)phenoxyphosphorylamino) propionic acid isopropyl ester], the activity at 100 µM in series [1] (setting [3]) was found to be 61%; in series [2] (setting [4]), 74%. Moreover, the “LRV1 capsid (geometric mean FU)” value in series [1] (setting [10]) stood at 163 FU. Moreover, the “Effect on LRV1 (capsid) levels, in words” value in series [1] (2 days) was “little effect on LRV1”. In addition, the “Density (cells/mL)” value in series [2] (setting [5]) is recorded as 1.25E+7 cells/mL.
On to `NC(=O)c1ncn([C@@H]2O[C@H](CO)[C@@H](O)[C@H]2O)n1` [Ribavirin], for which the figures for the activity at 100 µM in series [1] (setting [3]) and in series [2] (setting [4]) were 61% and 13%, respectively. Also, in series [1] (setting [10]), the “LRV1 capsid (geometric mean FU)” value is recorded as 162 FU. Further, in series [2] (setting [5]), the “Density (cells/mL)” value amounted to 2.21E+6 cells/mL.
On to `Cc1cn([C@H]2C=C[C@@H](CO)O2)c(=O)[nH]c1=O` [Stavudine], for which the activity at 100 µM in series [1] (setting [3]) came out at 83%; in series [2] (setting [4]) it was 95%. In series [1] (setting [10]), the “LRV1 capsid (geometric mean FU)” value was 220 FU. Besides, in series [2] (setting [5]), the “Density (cells/mL)” value turned out to be 1.60E+7 cells/mL.
For `[H]/N=C(/N)NS(=O)(=O)c1ccc(N)cc1` [Sulfaguanidine], in that order: 98%, 68%, 260 FU and 1.15E+7 cells/mL.
For `C[C@H](Cn1cnc2c(N)ncnc21)OCP(=O)(O)O.O` [Tenofovir, Tenofovir monohydrate], in series [1] (setting [10]), the “LRV1 capsid (geometric mean FU)” value worked out at 206 FU and the “Percent control (LRV1 capsid)” value stood at 78 Percent control. Besides, in series [2] (setting [5]), the “Density (cells/mL)” value turned out to be 8.90E+6 cells/mL and the “Percent control (density)” value came out at 53 Percent control.
On to `Cc1cn([C@H]2C[C@H](N=[N+]=[N-])[C@@H](CO)O2)c(=O)[nH]c1=O` [Zidovudine], for which the values for the activity at 100 µM in series [1] (setting [3]) and in series [2] (setting [9]) were 74% and 107%, respectively. Further, the “LRV1 capsid (geometric mean FU)” value in series [1] (setting [10]) was 196 FU. For the same compound, in series [2] (setting [5]), the “Density (cells/mL)” value came to 1.81E+7 cells/mL.
With `CC(C)C[C@H](NC(=O)[C@H]1O[C@@H]1C(=O)O)C(=O)NCCCCN=C(N)N` [e64, E-64], in series [1], the “LRV1 capsid (geometric mean FU)” value stood at 153 FU. Further, the “Percent control (LRV1 capsid)” value in series [1] (LgyLRV1+, tested at 50 μM, 2 days) was determined as 58 Percent control. Moreover, the “Effect on LRV1 (capsid) levels, in words” value in series [1] (2 days) is given as “only minimal effects”. In series [2] (setting [14]), the “Density (cells/mL)” value was found to be 1.80E+07 cells/mL and the “Percent control (density)” value turned out to be 107 Percent control. Besides, the “Effect on L. guyanensis growth, in words” value in series [2] (screen at 100 μM or maximum concentration permitted by solubility, 2 days) is recorded as “no effects”.
Turning to `CCOC(=O)[C@H]1O[C@@H]1C(=O)N[C@@H](CC(C)C)C(=O)NCCC(C)C` [e64d, E64-d], the activity at 10 µM was 37% in series [1] (setting [3]) and 90% in series [2] (Leishmania guyanensis, 48 h, LgyLRV1+, tested at 10 μM, growth after 2 days, read-out: Percent control (density)). Moreover, in series [1] (LgyLRV1+, tested at 10 μM, 2 days), the “LRV1 capsid (geometric mean FU)” value stood at 97 FU. Moreover, the “Density (cells/mL)” value in series [2] (LgyLRV1+, tested at 10 μM, growth after 2 days) is reported as 1.52E+07 cells/mL.
